# From ChEMBL document CHEMBL4321837, “Discovery of Potent and Orally Effective Dual Janus Kinase 2/FLT3 Inhibitors for the Treatment of Acute Myelogenous Leukemia and Myeloproliferative Neoplasms” (J Med Chem, 2019)
# pIC50: −log10 of the molar value. Activity calls are given as the source filed them. No cut-off for these calls is given here.
# Experiments:
# CDK6/cyclin D3 = CDK6/cyclin D3 (Homo sapiens, UniProt Q00534); assay: Inhibition of recombinant full length human CDK6/CyclinD3 using histone H1 as substrate incubated for 30 mins in presence of [gamma33P]-ATP by scintillation counting based radiometry assay; type: protein-complex assay
# MV4-11 [1] = assay: Induction of apoptosis in human MV4-11 cells assessed as necrotic cells at 0.4 uM after 24 hrs by Annexin V FITC/PI staining based flow cytometry analysis (reference value: 0.18%); type: functional
# SET-2 = assay: Antiproliferative activity against human SET2 cells overexpressing JAK2 […] mutant assessed as reduction in cell growth after 72 hrs by MTT assay; type: functional, cell-based; conditions: SET-2, 72 h
# [2] = Anti-myelofibrosis activity against mouse BAF3(transformed) cells harboring with JAK2 V617F mutant allografted in NOD/SCID mouse assessed as reduction in spleen weight at 60 mg/kg, po qd for 20 days measured on day 25 relative to control; type: functional
# MV4-11 [3] = assay: Induction of apoptosis in human MV4-11 cells assessed as late apoptotic cells at 0.4 uM after 24 hrs by Annexin V FITC/PI staining based flow cytometry analysis (reference value: 1.38%); type: functional
# MV4-11 [4] = assay: Induction of apoptosis in human MV4-11 cells assessed as early apoptotic cells at 0.4 uM after 24 hrs by Annexin V FITC/PI staining based flow cytometry analysis (reference value: 2.14%); type: functional
# MV4-11 [5] = assay: Induction of apoptosis in human MV4-11 cells assessed as early apoptotic cells at 0.8 uM after 24 hrs by Annexin V FITC/PI staining based flow cytometry analysis (reference value: 2.14%); type: functional
# IEC-6 = assay: Cytotoxicity against rat IEC-6 cells assessed as cell viability after 72 hrs by MTT assay; type: cell-based; conditions: iec-6, 72 h
# MV4-11 [6] = assay: Inhibition of JAK2/FLT3 ITD mutant in human MV4-11 cells assessed as reduction in FLT3 phosphorylation after 2 hrs by Western blot analysis; type: cell-based
# MV4-11 [7] = assay: Induction of cell cycle arrest in human MV4-11 cells assessed as accumulation at S phase at 0.005 uM after 24 hrs by propidium iodide staining based flow cytometry analysis (reference value: 30.11%); type: functional
# Homo sapiens [8] = organism: Homo sapiens; assay: Inhibition of JAK2 V617F mutant/FLT3 in human SET2 cells assessed as reduction in JAK2 phosphorylation at 0.2 uM after 2 hrs by Western blot analysis; type: cell-based
# MV4-11 [9] = assay: Induction of cell cycle arrest in human MV4-11 cells assessed as accumulation at G0/G1 phase at 0.05 uM after 24 hrs by propidium iodide staining based flow cytometry analysis (reference value: 54.49%); type: functional
# Homo sapiens [10] = organism: Homo sapiens; assay: Inhibition of JAK2 V617F mutant/FLT3 in human SET2 cells assessed as reduction in FLT3 phosphorylation after 2 hrs by Western blot analysis; type: cell-based
# MV4-11 [11] = assay: Induction of cell cycle arrest in human MV4-11 cells assessed as accumulation at G0/G1 phase at 0.1 uM after 24 hrs by propidium iodide staining based flow cytometry analysis (reference value: 54.49%); type: functional
# MV4-11 [12] = assay: Induction of cell cycle arrest in human MV4-11 cells assessed as accumulation at S phase at 0.01 uM after 24 hrs by propidium iodide staining based flow cytometry analysis (reference value: 30.11%); type: functional
# MV4-11 [13] = assay: Induction of cell cycle arrest in human MV4-11 cells assessed as accumulation at S phase at 0.1 uM after 24 hrs by propidium iodide staining based flow cytometry analysis (reference value: 30.11%); type: functional
# Chain of CDK6/cyclin D3 (P30281 whole entry): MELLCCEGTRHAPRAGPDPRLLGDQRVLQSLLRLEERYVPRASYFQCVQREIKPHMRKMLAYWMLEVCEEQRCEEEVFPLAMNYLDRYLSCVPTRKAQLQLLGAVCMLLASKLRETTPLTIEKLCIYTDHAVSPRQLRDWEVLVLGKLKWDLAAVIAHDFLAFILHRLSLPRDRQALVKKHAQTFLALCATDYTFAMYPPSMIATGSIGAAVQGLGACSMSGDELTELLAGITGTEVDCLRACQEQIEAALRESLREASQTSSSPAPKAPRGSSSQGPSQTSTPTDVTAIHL
# Chain of CDK6/cyclin D3 (Q00534 whole entry): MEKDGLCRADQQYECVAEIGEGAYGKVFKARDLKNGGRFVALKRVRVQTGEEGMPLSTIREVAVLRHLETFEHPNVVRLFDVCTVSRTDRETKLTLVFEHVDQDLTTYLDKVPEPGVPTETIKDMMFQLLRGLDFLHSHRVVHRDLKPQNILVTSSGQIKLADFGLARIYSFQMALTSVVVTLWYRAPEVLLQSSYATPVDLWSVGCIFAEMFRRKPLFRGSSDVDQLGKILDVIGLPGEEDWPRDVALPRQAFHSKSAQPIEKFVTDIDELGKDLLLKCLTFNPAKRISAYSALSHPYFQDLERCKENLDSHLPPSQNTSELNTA
compound,measurement,setting,value
Cc1cnc(Nc2ccc(N3CCC(N(C)CCO)CC3)c(F)c2)nc1-c1cnn(C(C)C)c1,pIC50,CDK6/cyclin D3,7.18
same,Activity,MV4-11 [1],1.04%
same,pIC50,SET-2,6.57
same,inhibition in vivo at 60 mg/kg,[2],59.5%
same,Activity,MV4-11 [3],26.5%
same,Activity,MV4-11 [4],21.2%
same,Activity,MV4-11 [5],23.4%
same,Activity,IEC-6,Non-Toxic
same,inhibition,MV4-11 [6],Dose-dependent effect
same,Activity,MV4-11 [7],28.22%
same,inhibition,Homo sapiens [8],Active
same,Activity,MV4-11 [9],81.64%
same,inhibition,Homo sapiens [10],Dose-dependent effect
same,Activity,MV4-11 [11],84.71%
same,Activity,MV4-11 [12],29.65%
same,Activity,MV4-11 [13],10.26%
